From patent publication US10517889B2, “Modulators of SMAD7 expression” (Ionis Pharmaceuticals, Inc., priority 2017, dated 2019)
“And” between values parts separate entries of the source, which are not always exact repeats. Identical values can stand only once. Strand notation (5' to 3'): a small letter for the sugar, then the base; units joined by * are phosphorothioate-linked, units joined directly phosphodiester-linked; [ ] holds rarer units or linkages, { } end groups; capitals alone tell only the bases. e = 2'-O-(2-methoxyethyl) (MOE); k = constrained ethyl (cEt); [5mC] = 5-methylcytosine; d = 2'-deoxy (DNA)

Tests used:
[1] = test system: human SMAD7 mRNA; assay: Dose-dependent inhibition of human SMAD7 mRNA expression in A431 cells, oligonucleotide added without transfection (Example 5, Study 1); assay type: cell-based; conditions: approximately 48 hours
Description: The newly designed compounds disclosed herein are cEt-modified antisense oligonucleotides. […] The studies described below show a comparison of select cEt-modified gapmers and ION0736697/Mongersen.
A431 cells were plated in collagen I-coated 96-well plates in DMEM with […]. Immediately after plating, 0.08 μM, 0.25 μM, 0.74 μM, 2.22 μM, 6.67 μM, or 20.00 μM concentrations of antisense oligonucleotide were added. The plates were shaken briefly before incubating at 37° C. and 10% CO2. After a treatment period of approximately 48 hours, the cells were washed and lyzed and RNA on 384-well Pall plates with DNase I treatment. SMAD7 mRNA levels were measured by quantitative real-time PCR. Primer probe set RTS5062 was used to measure human SMAD7 mRNA levels. SMAD7 mRNA levels were adjusted according to total RNA content, as measured by RIBOGREEN®. Results are presented as percent inhibition of SMAD7 mRNA expression, relative to untreated control cells.
All Ionis oligonucleotides had greater potency than ION 736697/Mongersen.

[2] = test system: murine Smad7 mRNA; assay: Dose-dependent inhibition of murine Smad7 mRNA in bEND cells, electroporation (Example 5, Study 2); assay type: cell-based, mouse; conditions: electroporation; for % inhibition of SMAD7 mRNA expression: approximately 16 hours
Description: Many of the Ionis designed oligonucleotides as well as ION 736697/Mongersen are complementary to mouse Smad7 mRNA. […] After a treatment period of approximately 16 hours, the cells were washed and lyzed and RNA on 384-well Pall plates with DNase I treatment. Smad7 mRNA levels were measured by quantitative real-time PCR. Primer probe set RTS1114 (forward sequence […], designated herein as SEQ ID NO: 8; reverse sequence […], designated herein as SEQ ID NO: 9; probe sequence […], designated herein as SEQ ID NO: 10) was used to measure murine Smad7 mRNA levels. Smad7 mRNA levels were adjusted according to total RNA content, as measured by RIBOGREEN®. Results are presented as percent inhibition of Smad7 mRNA expression, relative to untreated control cells.
Many of the Ionis oligonucleotides had greater potency than ION 736697/Mongersen.

[3] = test system: human peripheral blood mononuclear cells (PBMCs); assay: Human PBMC activation assay, cytokine levels (IL-10, IL-6, MCP-1, TNF-α) in supernatant after 24 hours (Example 9); conditions: human PBMC supernatant after 24 hours
[4] = test system: human SMAD7 mRNA; assay: Antisense inhibition of human SMAD7 mRNA expression in Hep3B cells by 5-10-5 MOE gapmers, single concentration, electroporation, RT-PCR (Example 1, Study 1 and 2); assay type: cell-based; conditions: 5-10-5 MOE gapmers targeting SEQ ID NO: 1 and 2
Procedure, shortened: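 Readout is percent SMAD7 mRNA inhibition versus untreated cells, measured by qRT-PCR (RTS5062) and corrected for total RNA by RIBOGREEN. Oligonucleotide, 5,000 nM or 15,000 nM, was delivered by electroporation into Hep3B cells at 20,000 per well. RNA was collected about 24 h later.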

[5] = test system: human SMAD7 mRNA; assay: Antisense inhibition of human SMAD7 mRNA expression in Hep3B cells by 3-10-3 cEt gapmers, 10,000 nM, electroporation (Example 2); assay type: cell-based; conditions: approximately 24 hours, primer probe set RTS5062, relative to untreated control cells
Procedure, shortened: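 qRT-PCR (RTS5062) of SMAD7 mRNA, normalised to RIBOGREEN total RNA, gave percent inhibition relative to untreated controls. Hep3B cells at 20,000 per well received 10,000 nM oligonucleotide by electroporation, with ~24 h treatment.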

[6] = test system: human SMAD7 mRNA; assay: Dose-dependent inhibition of human SMAD7 mRNA expression in Hep3B cells (Example 3, Study 1 and 2); assay type: cell-based; conditions: electroporation; for % inhibition of SMAD7 mRNA expression: approximately 16 hours
Procedure, shortened: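 Hep3B cells, 20,000 per well, electroporated with antisense oligonucleotide at 0.31, 1.25, 5.00 or 20.00 μM (first series) or 0.74, 2.22, 6.67 or 20.00 μM (second series). After ~16 h, SMAD7 mRNA measured by RT-qPCR (RTS5062), normalised to RIBOGREEN total RNA. Percent inhibition vs untreated cells; IC50 derived.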

[7] = test system: human SMAD7 mRNA; assay: Dose-dependent inhibition of human SMAD7 mRNA expression in Hep3B cells, comparison with ION 28453 (Example 4); assay type: cell-based; conditions: electroporation, approximately 16 hours; for IC50: SMAD7 mRNA
Description: Cells were plated at a density of 20,000 cells per well and transfected using electroporation with 0.25 μM, 0.74 μM, 2.22 μM, 6.67 μM, or 20.00 μM concentrations of antisense oligonucleotide, as specified in the Tables below. After a treatment period of approximately 16 hours, RNA was isolated from the cells and SMAD7 mRNA levels were measured by quantitative real-time PCR. Primer probe set RTS5062 was used to measure human SMAD7 mRNA levels. SMAD7 mRNA levels were adjusted according to total RNA content, as measured by RIBOGREEN®. Results are presented as percent inhibition of SMAD7 mRNa expression, relative to untreated control cells.
The half maximal inhibitory concentration (IC50) of each oligonucleotide is also presented. […] Several newly designed antisense oligonucleotides had greater potency than the previously disclosed lead compound, ION 28453.

[8] = Hep3B cells, electroporation with 10,000 nM antisense oligonucleotide
[9] = 740 nM, Study 2, relative to untreated control cells
[10] = SMAD7 mRNA, Hep3B cells, 10,000 nM antisense oligonucleotide, electroporation

Substance: 736697 (antisense GTCGCCCCTTCTCCCCGCAGC; chemistry not fully specified) [compound 736697]
- % inhibition of SMAD7 mRNA expression ([1]; 0.08 μM): 14%
- % inhibition of SMAD7 mRNA expression ([1]; 0.25 μM): 20%
- % inhibition of SMAD7 mRNA expression ([1]; 0.74 μM): 24%
- % inhibition of SMAD7 mRNA expression ([1]; 2.22 μM): 13%
- % inhibition of SMAD7 mRNA expression ([1]; 6.67 μM): 34%
- % inhibition of SMAD7 mRNA expression ([1]; 20.00 μM): 37%
- IC50 ([1]; SMAD7 mRNA): > 20 µM
- % inhibition of SMAD7 mRNA expression ([2]; 0.25 μM): 1%
- % inhibition of SMAD7 mRNA expression ([2]; 0.74 μM): 1%
- % inhibition of SMAD7 mRNA expression ([2]; 2.22 μM): 0%
- % inhibition of SMAD7 mRNA expression ([2]; 6.67 μM): 0%
- % inhibition of SMAD7 mRNA expression ([2]; 20.00 μM): 0%
- IC50 [2]: > 20 µM
- Levels of IL-6 ([3]; 0.0128 μM oligonucleotide): 3.6 pg/mL
- Levels of IL-10 ([3]; 0.0128 μM oligonucleotide): 2.1 pg/mL
- Levels of MCP-1 ([3]; 0.0128 μM oligonucleotide): 297.6 pg/mL
- Levels of TNF-α ([3]; 0.0128 μM oligonucleotide): 2.8 pg/mL
- Levels of IL-6 ([3]; 0.064 μM oligonucleotide): 5.3 pg/mL
- Levels of IL-10 ([3]; 0.064 μM oligonucleotide): 3.1 pg/mL
- Levels of MCP-1 ([3]; 0.064 μM oligonucleotide): 385.9 pg/mL
- Levels of TNF-α ([3]; 0.064 μM oligonucleotide): 3.5 pg/mL
- Levels of IL-6 ([3]; 0.32 μM oligonucleotide): 12.3 pg/mL
- Levels of IL-10 ([3]; 0.32 μM oligonucleotide): 3.5 pg/mL
- Levels of MCP-1 ([3]; 0.32 μM oligonucleotide): 681.3 pg/mL
- Levels of TNF-α ([3]; 0.32 μM oligonucleotide): 5.5 pg/mL
- Levels of IL-6 ([3]; 1.6 μM oligonucleotide): 15.5 pg/mL
- Levels of IL-10 ([3]; 1.6 μM oligonucleotide): 2.2 pg/mL
- Levels of MCP-1 ([3]; 1.6 μM oligonucleotide): 693.9 pg/mL
- Levels of TNF-α ([3]; 1.6 μM oligonucleotide): 6.8 pg/mL
- Levels of IL-6 ([3]; 8 μM oligonucleotide): 57.4 pg/mL
- Levels of IL-10 ([3]; 8 μM oligonucleotide): 4.2 pg/mL
- Levels of MCP-1 ([3]; 8 μM oligonucleotide): 2306.8 pg/mL
- Levels of TNF-α ([3]; 8 μM oligonucleotide): 13.6 pg/mL
- Levels of IL-6 ([3]; 40 μM oligonucleotide): 63.3 pg/mL
- Levels of IL-10 ([3]; 40 μM oligonucleotide): 4.7 pg/mL
- Levels of MCP-1 ([3]; 40 μM oligonucleotide): 2974.9 pg/mL
- Levels of TNF-α ([3]; 40 μM oligonucleotide): 28.1 pg/mL
- Levels of IL-6 ([3]; 200 μM oligonucleotide): 64.8 pg/mL
- Levels of IL-10 ([3]; 200 μM oligonucleotide): 4.0 pg/mL
- Levels of MCP-1 ([3]; 200 μM oligonucleotide): 622.8 pg/mL
- Levels of TNF-α ([3]; 200 μM oligonucleotide): 43.7 pg/mL

Substance: 771576 (antisense eG*eG*eG*e[5mC]*eA*dG*dG*dA*dG*dA*dG*dA*d[5mC]*dA*d[5mC]*e[5mC]*eG*e[5mC]*eT*eT) [compound 771576]
- % Inhibition of SMAD7 mRNA ([4]; electroporation with 15,000 nM antisense oligonucleotide (Study 2)): 64%
- % inhibition of SMAD7 mRNA expression ([4]; electroporation, 15,000 nM antisense oligonucleotide (Study 2)): 28%
- % Inhibition [5, 8]: 49%
- % inhibition of SMAD7 mRNA expression [5, 8]: 50%
- % inhibition of SMAD7 mRNA expression ([6]; 312.5 nM, Study 1, relative to untreated control cells): 9%
- % inhibition of SMAD7 mRNA expression [6, 9]: 0%
- % inhibition of SMAD7 mRNA expression ([6]; 1250.0 nM, Study 1): 24%
- % inhibition of SMAD7 mRNA expression ([6]; 2220 nM, Study 2): 23%
- % inhibition of SMAD7 mRNA expression ([6]; 5000.0 nM, Study 1): 55%
- % inhibition of SMAD7 mRNA expression ([6]; 6670.0 nM, Study 2): 23%
- % inhibition of SMAD7 mRNA expression ([6]; 20000.0 nM, Study 1): 75%
- % inhibition of SMAD7 mRNA expression ([6]; 20000.0 nM, Study 2): 22%
- IC50 ([6]; Study 1 (312.5-20000 nM)): 4 µM
- IC50 ([6]; Study 2 (740-20000 nM)): > 20 µM

Substance: 772568 (antisense kA*kG*k[5mC]*d[5mC]*dT*d[5mC]*dT*dT*dG*dA*d[5mC]*dT*dT*k[5mC]*k[5mC]*kG) [compound 772568]
- % inhibition of SMAD7 mRNA expression [5, 8]: 82%
- % Inhibition [5, 10]: 45%
- % inhibition of SMAD7 mRNA expression [6, 9]: 41%
- % inhibition of SMAD7 mRNA expression ([6]; 2220 nM, Study 2): 62%
- % inhibition of SMAD7 mRNA expression ([6]; 6670.0 nM, Study 2): 58%
- % inhibition of SMAD7 mRNA expression ([6]; 20000.0 nM, Study 2): 79%
- IC50 ([6]; Study 2 (740-20000 nM)): 1 µM
- % inhibition of SMAD7 mRNA expression ([7]; 0.74 μM): 0%
- % inhibition of SMAD7 mRNA expression ([7]; 2.22 μM): 22% and 25%
- % inhibition of SMAD7 mRNA expression ([7]; 6.67 μM): 36% and 47%
- % inhibition of SMAD7 mRNA expression ([7]; 20.00 μM): 61%
- IC50 [7]: 13 µM and 9 µM

Substance: 799184 (antisense kA*kA*k[5mC]*d[5mC]*dT*dT*dT*dG*dT*dA*dG*dT*dT*kA*kG*kA) [compound 799184]
- % inhibition of SMAD7 mRNA expression [5, 8]: 58%
- % Inhibition [5, 10]: 48%
- % inhibition of SMAD7 mRNA expression ([7]; 0.25 μM): 0%
- % inhibition of SMAD7 mRNA expression ([7]; 0.74 μM): 10%
- % inhibition of SMAD7 mRNA expression ([7]; 2.22 μM): 18%
- % inhibition of SMAD7 mRNA expression ([7]; 6.67 μM): 51%
- % inhibition of SMAD7 mRNA expression ([7]; 20.00 μM): 78%
- IC50 [7]: 6 µM

Substance: 800821 (antisense kG*k[5mC]*kT*dA*dA*dA*dT*dT*dT*d[5mC]*d[5mC]*dA*dA*kT*kG*kA) [compound 800821]
- % Inhibition [5, 10]: 56%
- % inhibition of SMAD7 mRNA expression ([7]; 0.25 μM): 14%
- % inhibition of SMAD7 mRNA expression ([7]; 0.74 μM): 30%
- % inhibition of SMAD7 mRNA expression ([7]; 2.22 μM): 35%
- % inhibition of SMAD7 mRNA expression ([7]; 6.67 μM): 58%
- % inhibition of SMAD7 mRNA expression ([7]; 20.00 μM): 79%
- IC50 [7]: 4 µM
